Experimental data reported in patent publication EP4332093A1, “SALT CONTAINING PIPERAZINE POLYCYCLIC DERIVATIVE, CRYSTAL FORM THEREOF, PREPARATION METHOD THEREFOR, AND USE THEREOF” (Shanghai Hansoh Biomedical Co., Ltd., priority 2021, dated 2022).
pIC50: −log10 of the molar value.

Tests used:
5-HT2A receptor [1] = target: T1, 5-HT2A receptor (Homo sapiens, UniProt P28223); experiment: Calcium ion mobility in cells stably expressing 5-HT2A receptors (Flp-In-CHO-5HT2A, FLIPR); format: cell-based; parameters: expressed in transfected cells; settings: Flp-In-CHO-5HT2A stable pool, 5HT stimulation
5-HT2A receptor [2] = target: T1, 5-HT2A receptor; experiment: Radioligand binding assay, 5-HT2A receptor ([3H]-Ketanserin); parameters: purchased PerkinElmer; settings: Human 5-HT2A Receptor membrane, [3H]-Ketanserin 2 nM; read-out: 5HT-2A Binding IC50
Procedure: Determination of the binding ability of the compounds of the
present invention to 5-HT2A receptor
The objective of this test example is to determine the affinity of the compounds for 5-HT2A receptor.
Experimental buffer: 50 mM Tris-HCl pH 7.4, 4 mM CaCl2; washing liquor: 50 mM Tris-HCl pH 7.4, stored at 4°C; 0.5% PEI solution: 0.5 g PEI dissolved in 100 mL ddH2O, 4°C storage of spare.
5 µL of the test compounds (0.005 nM to 100 nM, 10 concentrations in total) and 100 µL of buffer were added to a 96-well assay plate. 1.5 µL of cell membrane and 300 µL of buffer were added to each well, and the plate was shaken at 600 rpm for 5 minutes. 100 µL of a mixed solution of buffer and [^3H]-Ketanserin (final concentration of 2 nM) was added to the reaction system per well, and the plate was shaken at 600 rpm for 5 minutes and incubated at 27°C for 30 min. The […]-96 GF/B filter plate pre-incubated with 0.5% PEI for 1 h was washed twice with the buffer (1 mL/well). The cell membrane suspension was added to the […]-96 GF/B filter plate, washed 4 times, and incubated at 55°C for 10 min. 40 µL of ULTIMA GOLD was added to each well, and liquid scintillation counting was carried out.
(§1) The CPM (Counts per minute) values were determined by TopCount. […] The 10 concentrations of the compound were from 100 nM to 0.005 nM after 3-fold dilution of the reaction system. The percent inhibition rate and ten-point concentration data were fitted to the parametric nonlinear logistic equation by using GraphPad prism to calculate the IC50 values of the compound.

dopamine D3 receptor = target: T2, dopamine D3 receptor (Homo sapiens, UniProt P35462); experiment: Radioligand binding assay, dopamine D3 receptor ([3H]-methylspiperone); settings: Human Dopamine D3 Receptor membrane, [3H]-methylspiperone 0.5 nM
T2 construct: purchased PerkinElmer ES-173-M400UA
Procedure: Determination of the binding ability of the compounds of the present invention to dopamine D3 receptor
The objective of this test example is to determine the affinity of the compounds for dopamine D3 receptor.
Experimental buffer: 50 mM Tris-HCl pH 7.4, 10 mm MgCl2; washing liquor: 50 mM Tris-HCl pH 7.4, stored at 4°C; 0.5% PEI solution: 0.5 g PEI dissolved in 100 mL ddH2O, 4°C storage of spare.
5 µL of the test compounds (0.005 nM to 100 nM, 10 concentrations in total) and 100 µL of buffer were added to a 96-well assay plate. 1 µL of cell membrane and 300 µL of buffer were added to each well, and the plate was shaken at 600 rpm for 5 minutes. 100 µL of a mixed solution of buffer and [^3H]-methylspiperone (final concentration of 0.5 nM) was added to the reaction system per well, and the plate was shaken at 600 rpm for 5 minutes and incubated at 27°C for 30 min. The UNIFII,TER-96 GF/B filter plate pre-incubated with 0.5% PEI for 1 h was washed twice with the buffer (1 mL/well). The cell membrane suspension was added to the […]-96 GF/B filter plate, washed 4 times, and incubated at 55°C for 10 min. 40 µL of ULTIMA GOLD was added to each well, and liquid scintillation counting was carried out.
as §1

D3 receptor = target: T3, D3 receptor (Homo sapiens, UniProt P35462); experiment: cAMP content in cells stably expressing D3 receptors (CHO-D3, forskolin, HTRF); format: cell-based
T3 construct: expressed in transfected cells

[3] = Hygroscopicity study of salt (DVS); format: physicochemical; settings: 25°C, 0-95-0% RH
From the text: The hygroscopicity of a drug refers to the characteristics of the drug's ability or degree of water absorption at a certain temperature and humidity. […] (DVS) was used to characterize the ability of drugs to absorb water under different humidity conditions. The instrument parameters are detailed in the table below. [table]

[4] = Salt form quantification (HPLC-ELSD); format: physicochemical; settings: HPLC-ELSD, external standard method
Procedure: The number of acids binding in the salt form was quantified by HPLC-ELSD test. An appropriate amount of NaCl was weighed, and a series of linear solutions of different concentrations with the diluent acetonitrile-water (50:50) was prepared. […] The above linear solution and hydrochloride samples solution was taken to filter. [table]

[5] = Stability study of salt (light, high temperature, high humidity; 5 and 10 days; HPLC related substances); format: physicochemical
From the text: The chromatographic peak area normalization method was used to calculate the changes of related substances. [table]

[6] = Crystal form stability study of hydrochloride for 30 days; format: physicochemical; settings: HPLC peak area normalization
Procedure: The diluent 80% methanol solution was added to prepare a solution containing about 0.5 mg/mL hydrochloride. The mixture was sonicated for 30min to produce a clear solution. 1mL of the soluion was filtered and measured by HPLC. See "2.3.4" for the HPLC analysis method. The content of related substances was calculated according to the peak area normalization method, and the results are shown in Table 32 below. Table 32 HPLC data of hydrochloride in stability experimental conditions for 30 days

[7] = Solubility of hydrochloride and free base in different media (37°C, 24 hours, HPLC); format: physicochemical; settings: for solubility at 24 h: thermodynamic from solid
Procedure: The glass bottle was shaken overnight on an electrothermal constant temperature shaking tank, and the temperature was set to 37°C. After 24 hours, the sample solution was filtered with a 0.45 µm mixed water fiber filter membrane, and the subsequent filtrate was taken to test its content by HPLC. HPLC detection methods are described in "Stability Study Conditions". Table 24 Solubility of hydrochloride and free base in different pH buffers

T2 sequence (P35462 whole entry): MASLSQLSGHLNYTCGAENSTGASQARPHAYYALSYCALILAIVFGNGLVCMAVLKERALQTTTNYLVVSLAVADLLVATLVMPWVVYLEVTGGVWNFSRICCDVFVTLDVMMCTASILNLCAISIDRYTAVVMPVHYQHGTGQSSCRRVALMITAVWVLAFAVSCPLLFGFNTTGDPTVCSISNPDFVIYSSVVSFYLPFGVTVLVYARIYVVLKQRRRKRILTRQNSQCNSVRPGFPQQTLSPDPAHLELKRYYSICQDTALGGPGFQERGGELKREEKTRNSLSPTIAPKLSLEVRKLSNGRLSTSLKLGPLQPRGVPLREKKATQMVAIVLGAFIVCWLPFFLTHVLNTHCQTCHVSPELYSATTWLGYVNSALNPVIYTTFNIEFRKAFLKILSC
T3 sequence (P35462 whole entry): as above
T1 sequence (P28223 whole entry): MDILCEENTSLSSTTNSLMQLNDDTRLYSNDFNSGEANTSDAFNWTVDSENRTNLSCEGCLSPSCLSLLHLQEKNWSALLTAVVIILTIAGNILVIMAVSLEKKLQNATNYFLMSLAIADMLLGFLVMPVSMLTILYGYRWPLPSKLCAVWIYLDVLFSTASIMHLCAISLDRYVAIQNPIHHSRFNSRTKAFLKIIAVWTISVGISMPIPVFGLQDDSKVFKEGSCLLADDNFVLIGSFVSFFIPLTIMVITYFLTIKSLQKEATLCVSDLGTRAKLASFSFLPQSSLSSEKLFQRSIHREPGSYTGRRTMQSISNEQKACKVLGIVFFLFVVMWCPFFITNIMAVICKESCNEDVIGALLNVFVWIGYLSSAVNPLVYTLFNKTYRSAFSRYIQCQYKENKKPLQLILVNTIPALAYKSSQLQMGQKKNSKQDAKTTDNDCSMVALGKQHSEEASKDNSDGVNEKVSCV

Compound: Cc1ncc(C(=O)NC2CC(CCN3CCN(c4cccc(Cl)c4Cl)CC3)C2)o1 (stereo not shown) [Example 16A]
- IC50 (5-HT2A receptor [1]): 4.28 nM
- pIC50 (5-HT2A receptor [2]): 8.74
- pIC50 (dopamine D3 receptor): 9.48
- EC50 (D3 receptor): 1.7 nM

Compound: O=C(N[C@H]1C[C@H](CCN2CCN(c3cccc(Cl)c3Cl)CC2)C1)c1ccon1 [Example 17A, N-(Trans-3-(2-(4-(2,3-dichlorophenyl)piperazin-1-yl)ethyl)cyclobutyl)isoxazole-3-ca rboxamide]
- IC50 (5-HT2A receptor [1]): 20.8 nM
- pIC50 (5-HT2A receptor [2]): 8.72
- pIC50 (dopamine D3 receptor): 9.52
- EC50 (D3 receptor): 1.1 nM

Compound: Cc1nc(C(=O)N[C@H]2C[C@H](CCN3CCN(c4cccc(Cl)c4Cl)CC3)C2)co1 [Example 18A, N-(Trans-3-(2-(4-(2,3-dichlorophenyl)piperazin-1-yl)ethyl)cyclobutyl)-2-methyloxazole-4-carboxamide]
- IC50 (5-HT2A receptor [1]): 6.44 nM
- pIC50 (5-HT2A receptor [2]): 8.86
- pIC50 (dopamine D3 receptor): 9.38
- EC50 (D3 receptor): 1.4 nM

Compound: CN(C(=O)NC1CC(CCN2CCN(c3cccc(Cl)c3Cl)CC2)C1)C1CC1 (stereo not shown) [Example 20, 1-Cyclopropyl-3-(3-(2-(4-(2,3-dichlorophenyl)piperazin-1-yl)ethyl)cyclobutyl)-1-me thylurea]
- IC50 (5-HT2A receptor [1]): 11.6 nM
- pIC50 (5-HT2A receptor [2]): 7.72
- pIC50 (dopamine D3 receptor): 8.70
- EC50 (D3 receptor): 1 nM

Compound: Cl.O=C(N[C@H]1C[C@H](CCN2CCN(c3cccc(Cl)c3Cl)CC2)C1)c1ncco1 [hydrochloride]
- hygroscopicity (DVS) [3]: slightly hygroscopic
- Determination of Cl-percentage content in hydrochloride ([4]; Batch 1): 7.82%
- Determination of Cl-percentage content in hydrochloride ([4]; Batch 2): 7.90%
- stability (growth of impurities) [5]: good stability
- Area% at RRT 1.00 ([6]; 0d): 99.44%
- Area% at RRT 1.07 ([6]; 0d): 0.07%
- Area% at RRT 1.93 ([6]; 0d): 0.42%
- Area% at RRT 2.43 ([6]; 0d): 0.07%
- Area% at RRT 1.00 ([6]; GS-30d): 99.43%
- Area% at RRT 1.07 ([6]; GS-30d): 0.11%
- Area% at RRT 1.93 ([6]; GS-30d): 0.39%
- Area% at RRT 2.43 ([6]; GS-30d): 0.07%
- Area% at RRT 1.00 ([6]; GW-30d): 99.51%
- Area% at RRT 1.07 ([6]; GW-30d): 0.08%
- Area% at RRT 1.93 ([6]; GW-30d): 0.41%
- Area% at RRT 1.00 ([6]; GZ-30d): 99.43%
- Area% at RRT 1.07 ([6]; GZ-30d): 0.09%
- Area% at RRT 1.93 ([6]; GZ-30d): 0.41%
- Area% at RRT 2.43 ([6]; GZ-30d): 0.08%
- Area% at RRT 1.00 ([6]; WS-30d): 99.46%
- Area% at RRT 1.07 ([6]; WS-30d): 0.09%
- Area% at RRT 1.93 ([6]; WS-30d): 0.38%
- Area% at RRT 2.43 ([6]; WS-30d): 0.07%
- solubility in different pH buffers [7]: pH-dependent, with better solubility under acidic conditions, poor solubility under neutral or alkaline conditions
- solubility at 24 h ([7]; aqueous buffer, Buffer pH 3): > 1000 µg/mL
- solubility at 24 h ([7]; aqueous buffer, Buffer pH 4): > 1000 µg/mL
- solubility at 24 h ([7]; aqueous buffer, Buffer pH 5): 863 µg/mL
- solubility at 24 h ([7]; aqueous buffer, Buffer pH 6): 187 µg/mL
- solubility at 24 h ([7]; aqueous buffer, Buffer pH 7): 14 µg/mL
- solubility at 24 h ([7]; aqueous buffer, Buffer pH 8): 1 µg/mL
- solubility at 24 h ([7]; fassgf or other biorelevant, FaSSCoF): > 1000 µg/mL
- solubility at 24 h ([7]; fassgf or other biorelevant, FaSSGF): 117 µg/mL
- solubility at 24 h ([7]; fassgf or other biorelevant, FeSSCoF): > 1000 µg/mL
- solubility at 24 h ([7]; simulated gastric fluid, Buffer pH 1): > 1000 µg/mL
- solubility at 24 h ([7]; simulated gastric fluid, Buffer pH 2): > 1000 µg/mL
- solubility at 24 h ([7]; FaSSIF): > 1000 µg/mL
- solubility at 24 h ([7]; FeSSIF): > 1000 µg/mL
- solubility in water compared with free base ([7]; water): greatly improved
- solubility at 24 h ([7]; water, H2O): > 1000 µg/mL
